Values quoted from earlier work, collected in patent US20130065255A1, “Biomarker to Measure Drug Efficacy in Enteropathic Disease” (priority 2011, published 2013).

Columns and labels:
[1] = humans
[2] = 20 mg simvastatin dose, healthy volunteers, Park et al

| Compound | dose excreted unchanged in the urine [1] | SVA Cmax [2] |
| --- | --- | --- |
| Cc1ncc2n1-c1ccc(Cl)cc1C(c1ccccc1F)=NC2 [midazolam] | less than 1% |  |
| CCC(C)(C)C(=O)O[C@H]1C[C@@H](C)C=C2C=C[C@H](C)[C@H](CC[C@@H](O)C[C@@H](O)CC(=O)O)[C@H]21 [Simvastatin acid, simvastatin acid] |  | 1.2 ± 1.0 ng/mL |
